Results as given in PubChem BioAssay (NCI).
Where “and” joins values, the source holds several entries; their conditions need not be identical. Equal values may be shown once.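 Following 48 hours of exposure in 96-well plates, responses at five concentrations were used to interpolate endpoints linearly. At the GI50, growth is halved. TGI: total growth inhibition.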

Tests used:
Assay in all cases: NCI-60 cell line screen, 48 h
[1] = test system: BT-549 breast
[2] = test system: DU-145 prostate
[3] = test system: LOX IMVI melanoma
[4] = test system: SK-MEL-5 melanoma
[5] = test system: HOP-62 NSCLC
[6] = test system: NCI-H460 lung
[7] = test system: MCF7 breast
[8] = test system: SF-268 CNS
[9] = test system: A549 NSCLC
[10] = test system: HCT-116 colon

SMILES | GI50 [1] | TGI [1] | GI50 [2] | TGI [2] | GI50 [3] | TGI [3] | GI50 [4] | TGI [4] | GI50 [5] | TGI [5] | GI50 [6] | TGI [6] | GI50 [7] | TGI [7] | GI50 [8] | TGI [8] | GI50 [9] | TGI [9] | GI50 [10] | TGI [10]
C=C1C(=O)O[C@H]2[C@H]1CC/C(COC(=O)NCc1ccc(Cn3c(=O)sn(-c4ccc(OC)cc4)c3=O)cc1)=C\CC[C@@]1(C)O[C@@H]21 | 4.37 µM | 16.3 µM | 1.81 µM | 3.21 µM | 1.73 µM | 3.12 µM | 12 µM | 24.8 µM | 13.2 µM | 26.9 µM | 3.7 µM | 13.5 µM | 1.77 µM | 3.63 µM | 3.14 µM | 9.86 µM | 15.2 µM | 29.1 µM | 1.93 µM | 3.78 µM
N#CC(C#N)=C/C=C(\Sc1nc2ccccc2s1)c1ccc(Cl)cc1 | 11.3 µM | 26.2 µM | 3.98 µM | 17.1 µM | 2.59 µM | > 26.5 µM | 10.4 µM | 24.6 µM | 14 µM | 30.5 µM | 18 µM | > 64.9 µM | 7.65 µM | > 100 µM | 14.6 µM | 33 µM | 9.32 µM | 30.5 µM | 2.14 µM | 5.78 µM
Cc1cc(I)cc(CN(CCCN(C)C)C(C)C)c1O | 11.5 µM | 23.9 µM | 16.1 µM | 29.6 µM | 15 µM | 28.6 µM | 16.4 µM | 30.2 µM | 16.1 µM | 30.6 µM | 15.9 µM | 29.8 µM | 18.8 µM | 36 µM | 17.1 µM | 32.9 µM | 18.2 µM | 39.6 µM | 12.6 µM | 25.1 µM
COc1ccc(C2[C@@H](c3ccccc3)C(=O)N2c2cc(OC)c(OC)c(OC)c2)cc1F (stereo not given in full) | 0.0266 µM | 0.09 µM | 0.0354 µM | > 100 µM | 0.0296 µM | 13.8 µM | 0.0271 µM | 0.075 µM | 0.0379 µM | > 100 µM | 0.0344 µM | > 100 µM | 0.0296 µM | > 100 µM | 0.0443 µM | > 100 µM | 0.0368 µM | > 100 µM | 0.0324 µM | 10.4 µM
CC(=O)CC(OC(C)=O)C1=CCC2C(CC1C)OC(=O)C2C (stereo not given) | – | > 100 µM | – | > 100 µM | – | > 100 µM | – | > 100 µM | – | > 100 µM | – | > 100 µM | – | > 100 µM | – | > 100 µM | – | > 100 µM | – | > 100 µM
COc1cc(/C(C#N)=C/c2nc3c(N4CCOCC4)nc(Cl)nc3n2C)cc(OC)c1OC | < 0.01 µM | 0.481 µM | < 0.01 µM | > 94.3 µM | < 0.01 µM | 4.17 µM | < 0.01 µM | 0.0268 µM | < 0.01 µM | 12.9 µM | < 0.01 µM | 5.37 µM | < 0.0115 µM | > 32.5 µM | < 0.0118 µM | > 26.8 µM | < 0.01 µM | > 45.5 µM | < 0.01 µM | 0.464 µM
CC(C)=CCC(O)C1=CC(=O)c2c(O)ccc(O)c2C1=O (stereo not given) | – | 3.17 µM | – | 2.5 µM | – | 2.63 µM | – | 1.88 µM | – | 4.95 µM | – | 7.78 µM | – | 2.11 µM | – | 6.09 µM | – | 17.7 µM | – | 2.6 µM
Oc1[nH]c2ccccc2c1N=Nc1nc(-c2ccc(Br)cc2)cs1 | – | 45.6 µM | – | 68 µM | – | 33.1 µM | – | 33.4 µM | – | 28.6 µM | – | 65.8 µM | – | > 100 µM | – | 46.8 µM | – | 70.8 µM | – | > 100 µM
CC1(COc2ccc3c(c2)ncn3-c2ccc3cccc(N4CCC(N)CC4)c3n2)COC1 | 2.8 µM and 2.64 µM | 12.7 µM and 9.74 µM | 2.19 µM and 1.5 µM | 13 µM and > 10 µM | 1.4 µM and 1.16 µM | 3.97 µM and > 10 µM | 2.31 µM and 2.12 µM | 6.7 µM and 5.22 µM | 1.74 µM and 1.49 µM | 6.59 µM and 9.02 µM | 2.17 µM and 2.48 µM | 6.11 µM and 7.46 µM | 2.17 µM and 2.2 µM | 6.54 µM and 7.83 µM | 2.74 µM and 2.85 µM | 9.15 µM and > 10 µM | 1.83 µM and 2.39 µM | 4.45 µM and > 10 µM | 0.894 µM and 1.03 µM | 5.35 µM and > 10 µM
CN1CC[C@@H](NC(=O)Nc2ccc(C#N)cc2)C[C@@H]1c1nc2ccccc2[nH]1 | > 100 µM | > 100 µM | > 100 µM | > 100 µM | > 42.5 µM | > 59.5 µM | > 57.7 µM | > 100 µM | > 100 µM | > 100 µM | > 100 µM | > 100 µM | 98.8 µM | > 100 µM | > 100 µM | > 100 µM | > 100 µM | > 100 µM | > 87.1 µM | > 100 µM
Nc1ccc(C2=NNC(=O)Cc3cc4c(cc32)OCCO4)cc1Cl | 5.99 µM | > 50 µM | 11.4 µM | > 50 µM | 2.95 µM | > 50 µM | 2.28 µM | > 50 µM | 5.12 µM | > 50 µM | 1.94 µM | > 50 µM | 1.99 µM | > 50 µM | 8.77 µM | > 50 µM | 2.95 µM | > 50 µM | 2.64 µM | > 50 µM
COc1ccc(/C=N/NC(=O)c2cccc3cc[nH]c23)cc1O | 12.2 µM | > 78.8 µM | 3 µM | > 46.5 µM | 1.3 µM | > 100 µM | 1.27 µM | > 80.7 µM | 11.2 µM | > 100 µM | 2.03 µM | > 68.3 µM | 0.63 µM | > 100 µM | 4.01 µM | > 100 µM | 5.36 µM | > 100 µM | 1.72 µM | > 100 µM
O=C(/C=C/c1ccc(O)cc1)c1ccc(O)cc1 | – | > 75.3 µM | – | 99.9 µM | – | 28.1 µM | – | 44.2 µM | – | 49.1 µM | – | 72.5 µM | – | > 100 µM | – | 71.8 µM | – | > 100 µM | – | 36.3 µM
